ChEMBL document CHEMBL1156911 (Bioorg Med Chem, 2010)
Activity calls are given as the source filed them. No cut-off for these calls is given here.

Key:
[1] = molecular target: T1, 11-beta-hydroxysteroid dehydrogenase 1 (Homo sapiens, UniProt P28845); assay: Inhibition of human recombinant 11beta-HSD1 expressed in HEK293 cells assessed as partial reduction of cortisone to cortisol conversion at 3 uM by scintillation counting; assay type: cell-based
Target sequence in this assay (P28845 whole entry, looked up): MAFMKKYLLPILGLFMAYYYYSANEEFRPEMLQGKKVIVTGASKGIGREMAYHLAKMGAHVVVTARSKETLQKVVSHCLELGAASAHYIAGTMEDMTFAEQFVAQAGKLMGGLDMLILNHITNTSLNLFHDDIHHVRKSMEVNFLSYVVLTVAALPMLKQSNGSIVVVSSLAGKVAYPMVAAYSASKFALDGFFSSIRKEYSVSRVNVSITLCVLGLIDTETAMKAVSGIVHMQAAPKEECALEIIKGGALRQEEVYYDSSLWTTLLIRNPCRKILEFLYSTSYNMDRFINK

[2] = molecular target: T2, 11-beta-hydroxysteroid dehydrogenase type 2 (Homo sapiens) (UniProt P80365); assay: Inhibition of human recombinant 11beta-HSD2 expressed in HEK293 cells assessed as reduction of […] conversion at 20 uM by scintillation counting; assay type: cell-based
T2 sequence (whole entry): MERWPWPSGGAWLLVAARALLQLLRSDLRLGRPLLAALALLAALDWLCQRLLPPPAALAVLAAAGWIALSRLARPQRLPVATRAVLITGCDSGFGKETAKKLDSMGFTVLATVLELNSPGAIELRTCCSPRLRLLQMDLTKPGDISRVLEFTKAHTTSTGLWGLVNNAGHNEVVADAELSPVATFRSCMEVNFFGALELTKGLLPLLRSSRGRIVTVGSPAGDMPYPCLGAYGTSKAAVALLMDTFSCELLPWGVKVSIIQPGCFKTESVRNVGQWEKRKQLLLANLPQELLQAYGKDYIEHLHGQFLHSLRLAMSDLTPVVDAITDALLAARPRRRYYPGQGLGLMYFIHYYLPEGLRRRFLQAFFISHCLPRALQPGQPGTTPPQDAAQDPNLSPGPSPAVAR

[3] = molecular target: T1, 11-beta-hydroxysteroid dehydrogenase 1; assay: Inhibition of human recombinant 11beta-HSD1 expressed in HEK293 cells assessed as reduction of cortisone to cortisol conversion at 20 uM by scintillation counting; assay type: cell-based
Target sequence in this assay (P28845 whole entry, looked up): as the sequence (P28845 whole entry, looked up) above

[4] = molecular target: T1, 11-beta-hydroxysteroid dehydrogenase 1; assay: Inhibition of human recombinant 11beta-HSD1 expressed in HEK293 cells assessed as reduction of cortisone to cortisol conversion by scintillation counting; assay type: cell-based
[5] = molecular target: T2, 11-beta-hydroxysteroid dehydrogenase type 2 (Homo sapiens); assay: Inhibition of human recombinant 11beta-HSD2 expressed in HEK293 cells assessed as reduction of […] conversion up to 20 uM by scintillation counting; assay type: cell-based
[6] = molecular target: T1, 11-beta-hydroxysteroid dehydrogenase 1; assay: Inhibition of human recombinant 11beta-HSD1 expressed in HEK293 cells assessed as partial reduction of cortisone to cortisol conversion at 1.5 uM by scintillation counting; assay type: cell-based
Target sequence in this assay (P28845 whole entry, looked up): as the sequence (P28845 whole entry, looked up) above

[7] = molecular target: T1, 11-beta-hydroxysteroid dehydrogenase 1; settings: HEK293, 4 uM
Target sequence in this assay (P28845 whole entry, looked up): as the sequence (P28845 whole entry, looked up) above
Description: Inhibition of human recombinant 11beta-HSD1 expressed in HEK293 cells assessed as partial reduction of cortisone to cortisol conversion at 4 uM by scintillation counting

SMILES	Activity [2]	IC50 ([4]; hek293)	also measured
C[C@H]1[C@H](C)CC[C@]2(C(=O)O)CC[C@]3(C)C(=CC[C@@H]4[C@@]5(C)C[C@@H](O)C(=O)C(C)(C)[C@@H]5CC[C@]43C)[C@H]12	inactive	–	inhibition [1]: Active
CC(=O)O[C@@H]1CC[C@@]2(C)[C@@H](CC[C@]3(C)[C@@H]2C(=O)C=C2[C@@H]4[C@@H](C)[C@H](C)CC[C@]4(C)CC[C@]23C)[C@@]1(C)C(=O)O	–	–	inhibition [3]: 63%; inhibition [2]: 52%
COC(=O)[C@]12CC[C@@H](C)[C@H](C)[C@H]1C1=CC[C@@H]3[C@@]4(C)CC[C@H](O)C(C)(C)[C@@H]4CC[C@@]3(C)[C@]1(C)CC2	inactive	–	–
CC(=O)O[C@H]1CC[C@]2(C)[C@H]3C(=O)C=C4[C@@H]5[C@@H](C)[C@H](C)CC[C@]5(C(=O)O)CC[C@@]4(C)[C@]3(C)CC[C@H]2C1(C)C [11-OXOURSOLIC ACID ACETATE]	–	–	IC50 ([4]; read-out: IC50): 1350 nM
COC(=O)[C@]12CCC(C)(C)C[C@H]1C1=CC[C@@H]3[C@@]4(C)C[C@@H](O)[C@H](O)C(C)(C)[C@@H]4CC[C@@]3(C)[C@]1(C)CC2 [MASLINIC ACID METHYL ESTER]	inactive	Not Active	–
C[C@@H]1CC[C@]2(C(=O)O)CC[C@]3(C)C(=CC[C@@H]4[C@@]5(C)C[C@@H](O)[C@H](OC(=O)/C=C/c6ccc(O)cc6)C(C)(C)[C@@H]5CC[C@]43C)[C@@H]2[C@]1(C)O	inactive	Not Active	–
C[C@H]1[C@H](C)CC[C@]2(C)CC[C@]3(C)C(=CC(=O)[C@@H]4[C@@]5(C)CC[C@@H](O)[C@](C)(C(=O)O)[C@@H]5CC[C@]43C)[C@H]12	–	–	inhibition [3]: 52%; inhibition [2]: 68%
C[C@H]1[C@H](C)CC[C@]2(C(=O)O)CC[C@]3(C)C(=CC(=O)[C@@H]4[C@@]5(C)CC[C@H](O)C(C)(C)[C@@H]5CC[C@]43C)[C@H]12	–	–	IC50 ([4]; read-out: IC50): 2060 nM
COC(=O)[C@]12CC[C@@H](C)[C@H](C)[C@H]1C1=CC[C@@H]3[C@@]4(C)C[C@@H](O)[C@H](O)C(C)(C)[C@@H]4CC[C@@]3(C)[C@]1(C)CC2 [COROSOLIC ACID METHYL ESTER]	inactive	Not Active	–
C[C@H](CC(=O)C[C@@H](C)[C@H]1C[C@H](O)[C@@]2(C)C3=C(C(=O)C[C@]12C)[C@@]1(C)CCC(=O)C(C)(C)[C@@H]1C[C@@H]3O)C(=O)O	–	–	inhibition [3]: 46%; inhibition [2]: 76%
CC[C@H](CC[C@@H](C)[C@H]1CC[C@H]2[C@@H]3CC=C4C[C@@H](O)CC[C@]4(C)[C@H]3CC[C@]12C)C(C)C	inactive	–	–
C[C@@H]1CC[C@]2(C(=O)O)CC[C@]3(C)C(=CC[C@@H]4[C@@]5(C)C[C@@H](O)[C@H](OC(=O)/C=C\c6ccc(O)cc6)C(C)(C)[C@@H]5CC[C@]43C)[C@@H]2[C@]1(C)O	inactive	Not Active	–
C[C@H]1[C@H](C)CC[C@]2(C(=O)O)CC[C@]3(C)C(=CC[C@@H]4[C@@]5(C)C[C@@H](O)[C@H](O)C(C)(C)[C@@H]5CC[C@]43C)[C@H]12 [COROSOLIC ACID]	–	–	inhibition [4]: Dose-dependent effect; IC50 ([4]; read-out: IC50): 810 nM; inhibition [5]: inactive
COC(=O)[C@]12CC[C@@H](C)[C@H](C)[C@H]1C1=CC[C@@H]3[C@@]4(C)C[C@@H](O)[C@@H](O)C(C)(C)[C@@H]4CC[C@@]3(C)[C@]1(C)CC2	inactive	–	IC50 ([4]; read-out: IC50): 5200 nM
C[C@H]1[C@H](C)CC[C@]2(CO)CC[C@]3(C)C(=CC[C@@H]4[C@@]5(C)CC[C@H](O)C(C)(C)[C@@H]5CC[C@]43C)[C@H]12 [UVAOL]	inactive	Not Active	–
C[C@H]1[C@H](C)CC[C@]2(C(=O)O)CC[C@]3(C)C(=CC[C@@H]4[C@@]5(C)CC[C@H](O)C(C)(C)[C@@H]5CC[C@]43C)[C@H]12	inactive	–	inhibition [6]: Active
C[C@@H]1CC[C@]2(C(=O)O)CC[C@]3(C)C(=CC[C@@H]4[C@@]5(C)C[C@@H](O)[C@H](O)C(C)(C)[C@@H]5CC[C@]43C)[C@@H]2[C@]1(C)O [TOMENTIC ACID]	inactive	Not Active	–
COC(=O)[C@]12CC[C@@H](C)[C@@](C)(O)[C@H]1C1=CC[C@@H]3[C@@]4(C)C[C@@H](O)[C@H](O)C(C)(C)[C@@H]4CC[C@@]3(C)[C@]1(C)CC2 [TORMENTIC ACID METHYL ESTER]	inactive	–	IC50 ([4]; read-out: IC50): 9400 nM; inhibition [7]: Active
